From patent US9029080B2, “Screening assay for insecticides” (priority 2008, dated 2015)
Blank lines part the entries; values can stand above or below the compound they belong to.

Legend:
DmSK Potassium Channel = molecular target: T1, DmSK Potassium Channel (Drosophila melanogaster, UniProt Q7KVW5); assay: Xenopus laevis oocyte two-electrode voltage clamp of DmSK; assay type: cell-based; conditions: intracellular injection of 100 mM, oocytes clamped at +5 mV
T1 construct: expressed in transfected cells; host or cells: Xenopus laevis oocytes injected with in vitro transcribed RNA
Method: Purpose: To utilize the oocyte two-electrode voltage clamp expression system to assay functional expression of the […] Drosophila melanogaster small-conductance calcium-activated potassium channel (SK) within Xenopus laevis oocytes.
Stage V-VI oocytes were injected with 50 nl of in vitro transcribed DmSK RNA (1 ug/ul) using a Drummond Nanoject Injector (pCRII-SK2+4D plasmid linearized with HindIII and transcribed using the Ambion T7 mMessage mMachine transcription kit).
Channel expression was assayed using two-electrode voltage clamp (borosilicate glass 1.5 mm×1.12 mm filled with 3M KCl) through a Turbo Tec 10C Amplifier (NPI Instruments) connected to an Apple PowerMac G3 via an ADInstruments PowerLab system.
Injected oocytes with resting potentials greater than −30 mV were clamped at +5 mV and perfused with ND-96 bath solution (96 mM NaCl, 2 mM KCl, 1 mM MgCl2, 0.3 mM CaCl2, 5 mM HEPES at pH 7.5 and 230 mOsm) Currents measured were filtered at 2 kHz and with a 50/60 Hz HumBug noise eliminator.
SK channels were activated with intracellular injection of 100 mM […] (9.2 nl) using the nanoject while clamped. Measured currents were compared to published results of SK activation within oocytes (FIG. 85).

[1] = system: calcium-activated potassium currents; conditions: DUM neurons from cockroaches; cited from earlier work
[2] = molecular target: T2, octopamine receptor (OctR) (Drosophila melanogaster, UniProt Q9VCZ3); assay: Transient OctR expression in CHO G-alpha-16 cells, Fluo-4, Discovery microscope; assay type: cell-based
T2 construct: various amounts of untagged OctR-pcDNA3.1 DNA were transfected into CHO cells; expressed in transfected cells; host or cells: CHO stably expressing G-alpha-16, transient transfection
T2 sequence (Q9VCZ3 1-508): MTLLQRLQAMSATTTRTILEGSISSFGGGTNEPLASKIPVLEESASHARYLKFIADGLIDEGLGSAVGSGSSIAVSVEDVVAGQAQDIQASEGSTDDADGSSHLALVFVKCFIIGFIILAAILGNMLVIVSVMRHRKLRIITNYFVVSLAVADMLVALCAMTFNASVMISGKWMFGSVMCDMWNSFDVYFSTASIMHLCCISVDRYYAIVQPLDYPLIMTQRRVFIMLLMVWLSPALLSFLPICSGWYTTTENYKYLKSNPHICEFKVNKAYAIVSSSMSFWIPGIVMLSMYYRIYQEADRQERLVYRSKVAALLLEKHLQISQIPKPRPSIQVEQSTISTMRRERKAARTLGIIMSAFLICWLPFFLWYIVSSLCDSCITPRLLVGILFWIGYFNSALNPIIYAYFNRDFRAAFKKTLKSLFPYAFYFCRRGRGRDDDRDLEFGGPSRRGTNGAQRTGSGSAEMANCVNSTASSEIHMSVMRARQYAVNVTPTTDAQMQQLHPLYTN
Method: The untagged and GFP-tagged versions of OctR, which natively couples to cAMP, were transiently expressed in CHO cells stably expressing the G-alpha-16 promiscuous G protein, which signals through calcium. This allowed activation of the receptor to be measured by calcium-sensing fluorescent dyes.
In FIG. 55A, various amounts of untagged OctR-pcDNA3.1 DNA were transfected into CHO cells (6-well dish, 300,000 cells/well) and tested for function at 48 hours using Fluo-4 dye on the Discovery microscope. The graph shown below represents an average of all single-cell readings from cells expressing the cyan vector. It is assumed that the majority of cells expressing the cyan vector also express OctR.
FIG. 55. Calcium-sensing Fluo-4 fluorescent dye response to octopamine or tyramine stimulation in CHO cells stably expressing G-alpha-16 and transiently expressing increasing amounts of untagged or GFP-tagged OctR-pcDNA3.1. Cells cotransfected with pAmCyan vector as a marker of transfected cells were stimulated with a maximal dose of octopamine or sub-maximal dose of tyramine. Well averages of single-cell response measured on the Discovery microscope are graphed above.

[3] = Stability of octopamine solutions; assay type: physicochemical
Method: Octopamine was tested comparing freshly diluted versus a 24-hour solution (data not shown). The response obtained with the 24-hour solution stored at room temperature was identical to that of the freshly diluted solution. We have repeatedly […]

[4] = molecular target: T3, octopamine receptor (OctR, CG6919 dmOa2) (Drosophila melanogaster, UniProt Q9VCZ3); assay: OctR clone 55 FLIPR Fluo-4 calcium assay; assay type: cell-based
T3 construct: expressed in transfected cells; host or cells: CHO stably expressing G-alpha-16
Method: FIG. 62. Cells were plated at 10K/well in 384 well plates and allowed to incubate overnight at […]. The cells were assayed 18-24 hours after seeding. Media was removed and cells were dye loaded for 60 minutes with 2 μM Fluo-4. After 1 hour, dye was removed and 20 μl of buffer added to the plate and placed into FLIPR. The 1st addition was antagonist dose response curves and the 2nd addition was agonist dose response curves. Antagonists were challenged with 100 nM Octopamine. In addition, these compounds were tested in the parental cell line CHO-Galpha16.
Cells were plated at 10,000 cells/well in 50 μl into 384-well black TC plates and allowed to incubate overnight at 37° C./5% CO2. The cells were assayed 18-24 hours after seeding. Culture medium was removed by flicking and cells were dye loaded for 60 minutes with 20 μl of 2 μM Fluo-4 in assay buffer plus probenecid at 25° C. After one hour dye was removed by flicking and 20 μL of assay buffer was added, wait 5 min prior to placing into the FLIPR and run using a two-addition protocol. The first addition (20 ul, 2×) was 0.5% DMSO final in assay buffer. The second addition (20 ul, 3×) was either assay buffer or 100 nM octopamine final.

DmSK = molecular target: T4, DmSK (Drosophila melanogaster, UniProt Q7KVW5); assay: DmSK CHO membrane potential dye assay, ionomycin activation; assay type: cell-based
T4 construct: The resulting construct contains the SK CDS downstream of the CMV promoter; expressed in transfected cells; host or cells: CHO-K1 (pool 3 / clone SK3 and subclones)
Method: Basic test protocol: Cells were plated at 5×10^4/well into 96-well poly-D-lysine assay plates (BD Biosciences) and placed at 37 C/5% CO2 the day before testing. Culture medium was aspirated and replaced with 0.4× blue membrane potential dye (Molecular Devices Corporation) in assay buffer and incubated for 1 hour at RT. The assay was run by reading baseline fluorescence for 20 sec, and reading an additional 60 or 180 sec after activation.
This assay was developed using the Molecular Devices blue membrane potential dye at 0.4× the normal concentration. It is important to vortex the dye upon hydration and rinse the vial repeatedly to ensure that all the dye has been recovered and that it is in solution. The dye can be stored during the day at 4°. Dye loading is carried out by flipping the culture medium from the 96-well poly-D-lysine plate, gently tapping the plate on Kimwipes to remove excess medium, replacing it with 180 ul 0.4× dye per well, and incubating in the dark at room temperature (25° C.-28° C.) for 3-5 hr. The assay plate is now ready for testing which comprises a 20 ul (10×) first addition and 50 ul (5×) second addition. 50 uM propafenone [final] is used as a control inhibitor. The assay is read for three minutes after activation to allow maximum window development relative to controls. […]

[5] = Ionomycin stability in solution; assay type: physicochemical; conditions: 5 uM in assay buffer, SK activation
Method: An experiment was conducted (data not shown) to examine the stability of ionomycin in solution. Ionomycin was diluted to 5 uM in assay buffer, loaded into a compound plate and compared with freshly-prepared ionomycin for SK activation the following day. The freshly-prepared ionomycin yielded a statistically significant 6% increase in assay window size, so our recommendation is for freshly-prepared ionomycin.

ShaI = molecular target: T5, ShaI (Drosophila melanogaster, UniProt P17971); assay: ShaI electrophysiology (patch clamp); assay type: cell-based
T5 construct: expressed in transfected cells; host or cells: CHO
T5 sequence (P17971 1-490 isoform P17971-1): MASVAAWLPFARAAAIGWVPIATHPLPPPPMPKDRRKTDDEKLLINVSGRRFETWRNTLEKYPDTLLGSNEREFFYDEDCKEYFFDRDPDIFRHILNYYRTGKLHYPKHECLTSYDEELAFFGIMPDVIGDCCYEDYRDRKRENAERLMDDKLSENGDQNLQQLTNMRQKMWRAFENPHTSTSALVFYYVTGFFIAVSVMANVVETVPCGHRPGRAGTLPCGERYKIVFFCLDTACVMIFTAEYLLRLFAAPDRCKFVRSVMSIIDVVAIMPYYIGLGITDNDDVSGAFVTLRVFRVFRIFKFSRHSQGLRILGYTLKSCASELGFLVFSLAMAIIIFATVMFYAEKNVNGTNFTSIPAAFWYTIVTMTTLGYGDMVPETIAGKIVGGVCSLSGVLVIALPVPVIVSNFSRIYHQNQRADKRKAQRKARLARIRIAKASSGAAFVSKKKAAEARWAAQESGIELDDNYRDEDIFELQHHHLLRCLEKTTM
Method: Data were acquired and analyzed using pClamp software (version 9.0.1.16). The whole-cell configuration of the patch-clamp technique was used to voltage clamp cells at room temperature (22-25° C.). Pipettes were pulled from borosilicate glass capillaries (#8250, Garner Glass, Claremont, Calif.) using a DMZ Universal Puller (Zeitz, Munich, Germany) and had resistances of 1-2 MOhm when filled with pipette solution and measured in bath solution. The liquid junction potential between bath and pipette solution was always compensated before the formation of a gigaohm seal.
Membrane current was measured under whole-cell clamp, sampled at 2 kHz and filtered at 1 kHz by an Axoclamp 200B (Axon Instruments). Capacitance currents were electronically compensated at the beginning of each experiment. P/4 leak correction was applied.
To study ShaI currents on CHO cells, cells were held at −70 mV and a family of 500 ms test voltage pulses was applied starting from −70 to +70 mV, or +100 mV, in 10 mV increments. The amplitude, as measured for the current-voltage relationship, was defined as the maximal current at a given membrane potential.

CHO_pcDNA3 control cells = assay: CHO_pcDNA3 control cells, FLIPR KCl depolarization; assay type: cell-based, Chinese hamster; conditions: 4-5 mM, dye loaded 1 hr at RT
Method: (§1) The effects of barium (Ba2+) on ShaI_delN function were tested. Barium is known to inhibit some open rectifier and inward rectifier K-channel activities. Cells were dye loaded in the presence of BaCl2 for 1 hr at RT and assayed on the FLIPR using KCl depolarization for channel activation.

ShaI_delN = molecular target: T6, ShaI_delN (Drosophila melanogaster, UniProt P17971); assay: ShaI_delN clonal lines, FLIPR blue membrane potential dye, KCl depolarization; assay type: cell-based; conditions: 4-5 mM, dye loaded 1 hr at RT
T6 construct: expressed in transfected cells; host or cells: CHO
Method: ShaI_DelN C10 and C15 were tested for function on the FLIPR using the Molecular Devices blue membrane potential dye. The cells were seeded at 60K cells/well in 96-well Costar plates in complete media and assayed for function at 24 hrs. Depolarization with 15-60 mM KCl caused a 2-2.8 fold higher activity in the clonal line than the pcDNA control cell line (FIG. 5). Clone 10 had slightly higher activity than clone 15.
FIG. 5: ShaI_DelN clones tested on FLIPR with KCl depolarization. We also tested some known K-channel blockers on channel activity on the FLIPR (FIG. 6). […] The ShaI_delN clonal cell lines lost their GFP expression and assay window with cell passage. At passage 12, only 10-15% of the cell population was GFP positive.
as §1

Compound: [Cl][Cd][Cl] [cadmium chloride]
activation of DmSK outward currents (DmSK Potassium Channel): outward currents activated by at least three 9.2 nl injections

Compound: CSSC [DMDS, di-methyl disulfide]
effect on calcium-activated potassium currents [1]: inhibits calcium-activated potassium currents

efficacy relative to octopamine ([2]; preliminary data and published reports): only slightly less efficacious
activation of octopamine receptor ([2]; sub-maximal dose): activated by tyramine
Compound: NCCc1ccc(O)cc1 [tyramine]

activity after repeated freeze-thaw ([3]; 10 mM DMSO stocks): no reduction in activity
response of 24-hour solution versus freshly diluted solution ([3]; stored at room temperature, data not shown): identical
80% octopamine control concentration ([4]; 20-plate DMSO test run, 2nd addition): 100 nM
Compound: NCC(O)c1ccc(O)cc1 (centres unmarked) [octopamine]
rank order of potency (agonists) ([4]; clone 55, same as published cAMP data): naphazoline>octopamine>amitraz>clonidine>tolazoline

Compound: C[C@H](CCC(=O)O)C[C@H](C)C[C@H](C)C(=O)/C=C(\O)[C@H](C)C[C@H](C)C/C=C/[C@@H](C)[C@@H](O)[C@@H](C)[C@@H](O)C[C@@H]1CC[C@@](C)([C@H]2CC[C@@](C)([C@@H](C)O)O2)O1 [ionomycin]
EC50 (DmSK): 200 nM
concentration above which no increase in response window (DmSK; SK3, relative to controls): 800 nM
increase in assay window size, freshly-prepared versus solution of the day before [5]: 6%

Compound: [Ba+2] [Ba2+]
ShaI outward currents (ShaI): not inhibited
fluorescent responses with KCl depolarization (CHO_pcDNA3 control cells): significantly reduced fluorescent responses
ShaI_delN channel activity with KCl depolarization (ShaI_delN): without any significant reduction
